In ChEMBL document CHEMBL4257222, “Use of small molecule inhibitors targeting eya tyrosine phosphatase” (2016):
Active and inactive are the calls of the source. The calls are words filed in the database; no cut-off is given here.

Columns and labels:
Danio rerio [1] = organism: Danio rerio; assay: Inhibition of angiogenesis in FLK1-GFP trangenic zebrafish model of angiogenesis assessed as reduction in intersegmental vessel number and extension measured after 24 hpf stage by fluorescence microscopy; format: functional, organism-based
[2] = biological target: T1, Protein phosphatase EYA2 (Homo sapiens) (UniProt O00167); assay: Inhibition of Eya2 (unknown origin) expressed in human MCF10A cells assessed as reduction in cell migration at 1 uM; format: cell-based
T1 sequence (whole entry): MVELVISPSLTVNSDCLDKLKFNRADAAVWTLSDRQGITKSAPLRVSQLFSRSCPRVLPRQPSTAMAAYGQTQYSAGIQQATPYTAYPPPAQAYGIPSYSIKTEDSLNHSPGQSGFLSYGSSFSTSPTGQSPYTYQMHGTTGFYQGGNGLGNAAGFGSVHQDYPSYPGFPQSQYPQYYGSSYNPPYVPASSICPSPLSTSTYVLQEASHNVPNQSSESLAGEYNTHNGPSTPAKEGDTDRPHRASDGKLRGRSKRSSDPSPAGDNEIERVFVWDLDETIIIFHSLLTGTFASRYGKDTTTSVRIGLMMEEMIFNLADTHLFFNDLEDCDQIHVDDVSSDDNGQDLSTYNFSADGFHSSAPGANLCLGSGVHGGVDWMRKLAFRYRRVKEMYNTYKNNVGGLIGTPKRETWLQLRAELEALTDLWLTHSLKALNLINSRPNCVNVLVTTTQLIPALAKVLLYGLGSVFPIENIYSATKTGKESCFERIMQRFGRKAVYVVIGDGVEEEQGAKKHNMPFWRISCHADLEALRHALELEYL

HUVEC [3] = assay: Inhibition of tube formation of HUVEC by matrigel tube-formation assay; format: functional, cell-based; conditions: Homo sapiens
Mus musculus [4] = organism: Mus musculus; assay: Inhibition of proliferative retinopathy in mouse model of oxygen-induced retinopathy assessed as reduction in formation of neovascular tufts at 50 to 100 pmole injected at P12 and measured at P16; format: functional, organism-based
HUVEC [5] = assay: Toxicity in HUVEC assessed as reduction in cell proliferation incubated for 3 days by WST8 assay; format: cell-based; set-up: scale not given: the % may be the effect or the level left; conditions: human, 72 h
Danio rerio [6] = organism: Danio rerio; assay: Inhibition of angiogenesis in FLK1-GFP trangenic zebrafish model of angiogenesis assessed as effect on vasculature exposed to compound starting at later stage (20 hpf) by fluorescence microscopy; format: functional, organism-based
MCF-10A = assay: Toxicity in human MCF10A cells expressing Eya2 (unknown origin) assessed as effect on cell proliferation of; format: cell-based
Danio rerio [7] = organism: Danio rerio; assay: Inhibition of angiogenesis in FLK1-GFP trangenic zebrafish model of angiogenesis assessed as induction of defects in developing vasculature measured after 24 hpf stage by fluorescence microscopy; format: functional, organism-based
Mus musculus [8] = organism: Mus musculus; assay: Inhibition of proliferative retinopathy in mouse model of oxygen-induced retinopathy assessed as reduction in revascularization into the vaso-obliterated area at 50 to 100 pmole injected at P12 and measured at P16; format: functional, organism-based
Aorta [9] = assay: Inhibition of endothelial cell migration in VEGF165-stimulated […] mouse aortic rings incubated in collagen matrix assessed as induction of shorter sprouts incubated for 10 days by aortic ring assay; format: functional, tissue-based
Mus musculus [10] = organism: Mus musculus; assay: Inhibition of post-natal retinal angiogenesis in postnatal mouse assessed as reduction in branch points at 100 uM injected into eyes at P0.5, P3 and P5; format: functional, organism-based
[11] = Selectivity index, ratio of IC50 for inhibition of PTP1B (unknown origin) by p-nitrophenylphosphate assay to IC50 for inhibition of mouse Eya3 catalytic domain (223 to 510 residues) by p-nitrophenylphosphate assay
HUVEC [12] = assay: Inhibition of cell motility of HUVEC; format: functional, cell-based; conditions: Homo sapiens
HUVEC [13] = assay: Inhibition of tubulogenesis of HUVEC grown on growth factor-reduced matrigel by inverted microscopy; format: functional, cell-based; conditions: Homo sapiens
[14] = tested on: T2, Protein phosphatase EYA2 (Homo sapiens), O00167 [D250N]; assay: Inhibition of Eya2 D250N mutant (unknown origin) expressed in human MCF10A cells assessed as reduction in cell migration; format: cell-based; conditions: concentration not given here
T2 sequence (whole entry): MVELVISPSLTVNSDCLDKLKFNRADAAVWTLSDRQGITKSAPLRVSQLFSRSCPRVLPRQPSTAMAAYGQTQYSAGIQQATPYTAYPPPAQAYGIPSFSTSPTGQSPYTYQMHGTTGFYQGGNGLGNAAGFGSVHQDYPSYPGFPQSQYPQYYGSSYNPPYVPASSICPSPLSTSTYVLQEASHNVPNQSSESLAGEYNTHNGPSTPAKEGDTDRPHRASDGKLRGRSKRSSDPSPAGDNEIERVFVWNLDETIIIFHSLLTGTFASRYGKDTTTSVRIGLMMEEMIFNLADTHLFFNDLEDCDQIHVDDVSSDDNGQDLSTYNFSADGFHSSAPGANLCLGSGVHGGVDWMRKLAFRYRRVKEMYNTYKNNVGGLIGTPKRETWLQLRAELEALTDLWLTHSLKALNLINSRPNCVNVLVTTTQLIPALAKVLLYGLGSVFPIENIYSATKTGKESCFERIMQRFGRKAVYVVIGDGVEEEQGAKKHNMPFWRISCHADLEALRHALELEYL

HUVEC [15] = assay: Inhibition of tubulogenesis of HUVEC grown on growth factor-reduced matrigel at 2.5 uM by inverted microscopy; format: functional; conditions: Homo sapiens
[16] = biological target: T1, Protein phosphatase EYA2 (Homo sapiens); assay: Inhibition of Eya2 (unknown origin) expressed in human MCF10A cells assessed as reduction in cell migration; format: cell-based
HUVEC [17] = assay: Toxicity in HUVEC assessed as effect on cell proliferation by MTT assay; format: cell-based; conditions: human
Aorta [18] = assay: Inhibition of endothelial cell migration in VEGF165-stimulated […] mouse aortic rings incubated in collagen matrix assessed as reduction in microvascular density incubated for 10 days by aortic ring assay; format: functional, tissue-based
Aorta [19] = assay: Inhibition of sprouting in mouse aorta cultured in collagen gels at 7.5 uM by aortic ring sprouting assay; format: functional, tissue-based
Aorta [20] = assay: Inhibition of branching in mouse aorta cultured in collagen gels assessed as reduction in number of branch-points at 7.5 uM by aortic ring sprouting assay; format: functional, tissue-based
A673 = assay: Antitumor activity against human A673 cells xenografted in nude mouse assessed as inhibition tumor growth at 25 mg/kg/day, ip and measured every other day for 2 weeks; format: functional, organism-based
[21] = biological target: T3, Protein phosphatase EYA3 (Homo sapiens) (UniProt Q99504); conditions: 50 uM
T3 sequence (whole entry): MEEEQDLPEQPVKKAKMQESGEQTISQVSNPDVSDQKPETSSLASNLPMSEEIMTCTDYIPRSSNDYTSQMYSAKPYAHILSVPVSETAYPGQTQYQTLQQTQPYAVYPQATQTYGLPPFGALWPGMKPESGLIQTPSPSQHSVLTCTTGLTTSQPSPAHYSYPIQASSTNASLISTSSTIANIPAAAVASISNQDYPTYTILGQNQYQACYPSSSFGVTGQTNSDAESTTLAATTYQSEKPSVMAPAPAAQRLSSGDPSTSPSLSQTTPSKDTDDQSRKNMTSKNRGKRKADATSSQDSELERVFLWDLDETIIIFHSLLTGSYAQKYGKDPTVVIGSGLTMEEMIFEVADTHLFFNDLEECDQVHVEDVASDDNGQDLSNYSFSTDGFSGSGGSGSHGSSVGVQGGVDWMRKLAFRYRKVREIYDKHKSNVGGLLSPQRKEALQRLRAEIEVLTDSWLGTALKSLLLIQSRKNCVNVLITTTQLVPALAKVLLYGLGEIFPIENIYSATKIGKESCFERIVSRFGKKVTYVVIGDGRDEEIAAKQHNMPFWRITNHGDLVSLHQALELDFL
Description: Inhibition of human Eya3 isoform 2 (127 to 573 residues) interaction with His-tagged SIX2 at 50 uM by Ni-NTA agarose gel based pull down assay

HUVEC [22] = assay: Inhibition of tubulogenesis of HUVEC grown on growth factor-reduced matrigel at 7.5 uM by inverted microscopy; format: functional, cell-based; conditions: Homo sapiens
HUVEC [23] = assay: Inhibition of tube formation of HUVEC assessed as induction of reduction in endothelial cells organization after 2 hrs by matrigel tube-formation assay; format: functional, cell-based; conditions: Homo sapiens
HUVEC [24] = assay: Inhibition of tube formation of HUVEC assessed as induction of endothelial cells aggregation by matrigel tube-formation assay; format: functional, cell-based; conditions: Homo sapiens
HUVEC [25] = assay: Inhibition of tube formation of HUVEC assessed as induction of reduction in endothelial cells organization after 6 hrs by matrigel tube-formation assay; format: functional, cell-based; conditions: Homo sapiens
HUVEC [26] = assay: Inhibition of tube formation of HUVEC in presence of hight level of fetal bovine serum by matrigel tube-formation assay; format: functional, cell-based; conditions: Homo sapiens
HUVEC [27] = assay: Inhibition of tube formation of HUVEC assessed as reduction of interconnecting cellular aggregates of endothelial cells after 20 hrs by matrigel tube-formation assay; format: functional, cell-based; conditions: Homo sapiens

| SMILES | inhibition (Danio rerio [1]) | inhibition (HUVEC [3]) | inhibition (Mus musculus [4]) | Activity (HUVEC [5]) | inhibition (Danio rerio [6]) | Activity (MCF-10A) | inhibition (Danio rerio [7]) | inhibition (Mus musculus [8]) | inhibition (Aorta [9]) | inhibition (HUVEC [12]) | inhibition [14] [%] | inhibition [16] | Activity (HUVEC [17]) | inhibition (Aorta [18]) | inhibition (Aorta [19]) | inhibition (Aorta [20]) | also measured |
| --- | --- | --- | --- | --- | --- | --- | --- | --- | --- | --- | --- | --- | --- | --- | --- | --- | --- |
| CCc1oc2ccccc2c1C(=O)c1ccc(O)cc1 [BENZARONE] | Dose-dependent effect | Active | Active | Toxic | inactive | Non-Toxic | Dose-dependent effect | Active | Dose-dependent effect | Active | < 10 | Dose-dependent effect | Non-Toxic | Dose-dependent effect |  |  | inhibition [2]: > 50%; inhibition (Mus musculus [10]): Active; Ratio IC50 [11]: > 100; inhibition (HUVEC [13]): Dose-dependent effect; inhibition at 2.5 µM (HUVEC [15]): 50% |
| Cc1oc2ccccc2c1C(=O)c1ccc(O)c(I)c1 |  | inactive |  |  |  |  |  |  |  |  |  |  |  |  | Active | Active |  |
| CC(O)CCc1oc2ccccc2c1C(=O)c1cc(I)c(O)c(I)c1 (stereo not given) |  | inactive |  |  |  |  |  |  |  |  |  |  |  |  | Active | Active |  |
| CCCCc1oc2ccccc2c1C(=O)c1cc(I)c(O)c(I)c1 |  | inactive |  |  |  |  |  |  |  |  |  |  |  |  | Active | Active |  |
| CCc1oc2ccccc2c1C(=O)c1cc(Br)c(O)c(Br)c1 [BENZBROMARONE] | Dose-dependent effect | Active | Active | Toxic | inactive | Non-Toxic | Dose-dependent effect | Active | Dose-dependent effect | Active | < 10 | Dose-dependent effect | Non-Toxic | Dose-dependent effect |  |  | TGI (A673): Active; inhibition [21]: inactive; inhibition (HUVEC [22]): Active |
| CC(O)c1oc2ccccc2c1C(=O)c1cc(Br)c(O)c(Br)c1 (stereo not given) |  |  |  |  |  |  |  |  |  |  |  |  |  |  | Active | Active |  |
| Cc1oc2ccccc2c1C(=O)c1cc(I)c(O)c(I)c1 |  | inactive |  |  |  |  |  |  |  |  |  |  |  |  | Active | Active |  |
| CCc1oc2ccc(O)cc2c1C(=O)c1cc(Br)c(O)c(Br)c1 |  | inactive |  |  |  |  |  |  |  |  |  |  |  |  | Active | Active |  |
| CCCCc1oc2ccccc2c1C(=O)c1ccc(O)cc1 | Dose-dependent effect |  | Active |  | inactive | Non-Toxic | Dose-dependent effect | Active | Dose-dependent effect | Active | < 10 | Dose-dependent effect | Non-Toxic | Dose-dependent effect |  |  | inhibition (HUVEC [22]): Active |
| CCc1oc2cc(O)ccc2c1C(=O)c1cc(Br)c(O)c(Br)c1 |  | Active |  | > 50% |  |  |  |  |  |  |  |  |  |  | Active | Active | inhibition (HUVEC [23]): Active; inhibition (HUVEC [24]): Active; inhibition (HUVEC [25]): Active; inhibition (HUVEC [26]): inactive; inhibition (HUVEC [27]): Active |
